Assay results from article PMC9120017, “Inhibition mechanism of the chloride channel TMEM16A by the pore blocker 1PBC” (Nature Communications, 2022).
Read-outs that look alike come from different tables or passages of the source.

Target: T1, mouse TMEM16A mutant Y514A (Mus musculus, UniProt Q8BHY3, Y514A)
T1 construct: expressed in transfected cells; host or cells: HEK293T
T1 sequence (Q8BHY3 1-960 Y514A): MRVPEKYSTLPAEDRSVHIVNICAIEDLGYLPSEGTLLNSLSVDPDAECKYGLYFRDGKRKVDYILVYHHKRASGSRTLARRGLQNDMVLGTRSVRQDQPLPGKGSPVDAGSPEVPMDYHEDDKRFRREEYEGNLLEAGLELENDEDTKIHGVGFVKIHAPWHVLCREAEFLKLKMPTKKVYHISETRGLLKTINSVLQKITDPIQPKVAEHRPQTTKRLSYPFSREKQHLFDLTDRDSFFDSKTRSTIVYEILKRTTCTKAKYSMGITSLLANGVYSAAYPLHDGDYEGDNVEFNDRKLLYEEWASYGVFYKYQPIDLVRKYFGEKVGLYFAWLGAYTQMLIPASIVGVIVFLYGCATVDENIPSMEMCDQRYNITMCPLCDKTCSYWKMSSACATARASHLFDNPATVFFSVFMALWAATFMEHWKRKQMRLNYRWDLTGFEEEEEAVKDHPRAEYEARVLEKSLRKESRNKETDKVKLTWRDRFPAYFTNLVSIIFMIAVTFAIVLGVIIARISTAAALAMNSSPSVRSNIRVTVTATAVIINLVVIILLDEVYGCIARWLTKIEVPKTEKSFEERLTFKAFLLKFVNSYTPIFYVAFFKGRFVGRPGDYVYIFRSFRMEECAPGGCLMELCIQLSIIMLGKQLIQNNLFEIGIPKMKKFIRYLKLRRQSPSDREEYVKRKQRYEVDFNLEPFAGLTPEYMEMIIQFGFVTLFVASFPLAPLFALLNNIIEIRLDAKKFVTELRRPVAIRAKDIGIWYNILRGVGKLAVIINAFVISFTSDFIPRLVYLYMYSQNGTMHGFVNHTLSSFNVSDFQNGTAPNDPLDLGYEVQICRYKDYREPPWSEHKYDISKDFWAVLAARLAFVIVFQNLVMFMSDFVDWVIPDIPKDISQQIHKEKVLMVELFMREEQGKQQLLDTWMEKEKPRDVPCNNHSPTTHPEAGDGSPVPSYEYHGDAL
Assay: Inside-out patch recording of 1PBC block, mutant Y514A
Format: cell-based
Conditions: for remaining activity at 10 µM: 1PBC 10; for remaining activity at 10 µM / remaining activity at 30 µM / remaining activity at 100 µM: read-out: fraction of unblocked current; for remaining activity at 30 µM: 1PBC 30; for remaining activity at 100 µM: 1PBC 100
Method: HEK293T cells (ATCC CRL-1573) were maintained in Dulbecco’s modified Eagle’s medium (DMEM; Sigma-Aldrich) supplemented with 10 U ml^−1 penicillin, 0.1 mg ml^−1 streptomycin (Sigma-Aldrich), 2 mM L-glutamine (Sigma-Aldrich), and 10% FBS (Sigma-Aldrich) in a humidified atmosphere containing 5% CO2 at 37 °C. HEK293S GnTI^− cells (ATCC CRL-3022) were maintained in HyClone HyCell TransFx-H medium (GE Healthcare) supplemented with 10 U ml^−1 penicillin, 0.1 mg ml^−1 streptomycin, 4 mM L-glutamine, 0.15% poloxamer 188 (Sigma-Aldrich), and 1% FBS in an atmosphere containing 5% CO2 at 185 rpm at 37 °C. The ac splice variant of mouse TMEM16A (UniProt ID: Q8BHY3), mouse TMEM16B (UniProt ID: Q8CFW1), or mouse TMEM16F (UniProt ID: Q6P9J9) bearing a 3C cleavage site, a Venus YFP, a Myc tag, and a Streptavidin-binding peptide (SBP) downstream of the open reading frame in a modified pcDNA3.1 vector (Invitrogen) were used as described previously[21],[31]. Mutations were introduced using a modified QuikChange method[58] and were verified by sequencing.
HEK293T cells were transfected with 3–4 μg DNA per 6 cm Petri dish using the calcium phosphate co-precipitation method and were used within 24–96 h after transfection. Recordings were performed on inside-out patches excised from HEK293T cells expressing the construct of interest. Patch pipettes were pulled from borosilicate glass capillaries (O.D. 1.5 mm, I.D. 0.86 mm, Sutter Instrument) and were fire-polished with a microforge (Narishige) before use. Pipette resistance was typically 3–8 MΩ when filled with the recording solutions detailed below. Seal resistance was typically 4 GΩ or higher. Voltage-clamp recordings were made using Axopatch 200B, Digidata 1550, and Clampex 10.7 (Molecular Devices). Analog signals were filtered with the in-built 4-pole Bessel filter at 10 kHz and were digitized at 20 kHz. Solution exchange was achieved using a gravity-fed system through a theta glass pipette mounted on an ultra-fast piezo-driven stepper (Siskiyou). […] All recordings were performed at 20 °C.
A symmetrical ionic condition was used throughout. Stock solution with Ca^2+-EGTA contained 150 mM NaCl, 5.99 mM Ca(OH)2, 5 mM EGTA, and 10 mM HEPES at pH 7.40. Stock solution with EGTA contained 150 mM NaCl, 5 mM EGTA, and 10 mM HEPES at pH 7.40. Free Ca^2+ concentrations were adjusted by mixing the stock solutions at the required ratios calculated using the WEBMAXC program (http://web.stanford.edu/~cpatton/webmaxcS.htm). Patch pipettes were filled with the stock solution with Ca^2+-EGTA, which has a free Ca^2+ concentration of 1 mM. 1PBC (ChemBridge) stock was reconstituted in anhydrous DMSO (Sigma-Aldrich) at 100 mM and stored at −20 °C. Working solutions with 1PBC were prepared by serial dilution. Unless otherwise stated, experiments were performed at a saturating Ca^2+ concentration as shown in Supplementary Table 1 and the primary data were corrected for current rundown as described previously[21],[25].
Concentration-response relations, obtained from the ratio of the I-V plots before and after the application of the blocker, were fitted to the Hill equation,1 I/Imax=1/1+IC50/[blocker]^h where I/Imax is the normalized current responses, IC50 defines the concentration at which inhibition is at its half-maximum, and h is the Hill coefficient.

IC50 (0 mV, 2 µM Ca2+): 22.8 µM
remaining activity at 10 µM (0 mV): 71.6%
remaining activity at 10 µM (20 mV): 67.7%
remaining activity at 10 µM (40 mV): 65.8%
remaining activity at 10 µM (60 mV): 59.8%
remaining activity at 10 µM (80 mV): 58.2%
remaining activity at 10 µM (100 mV): 57.1%
remaining activity at 10 µM (120 mV): 53.3%
remaining activity at 10 µM (140 mV): 53.7%
remaining activity at 10 µM (-20 mV): 75.5%
remaining activity at 10 µM (-40 mV): 78.8%
remaining activity at 10 µM (-60 mV): 81.3%
remaining activity at 10 µM (-80 mV): 82.9%
remaining activity at 10 µM (-100 mV): 85.5%
remaining activity at 10 µM (-120 mV): 87.1%
remaining activity at 10 µM (-140 mV): 86.2%
remaining activity at 30 µM (0 mV): 41%
remaining activity at 30 µM (20 mV): 37.8%
remaining activity at 30 µM (40 mV): 34.4%
remaining activity at 30 µM (60 mV): 31.9%
remaining activity at 30 µM (80 mV): 28.9%
remaining activity at 30 µM (100 mV): 27.6%
remaining activity at 30 µM (120 mV): 26.5%
remaining activity at 30 µM (140 mV): 26.4%
remaining activity at 30 µM (-20 mV): 44.3%
remaining activity at 30 µM (-40 mV): 50%
remaining activity at 30 µM (-60 mV): 56.5%
remaining activity at 30 µM (-80 mV): 60.4%
remaining activity at 30 µM (-100 mV): 64.5%
remaining activity at 30 µM (-120 mV): 67.9%
remaining activity at 30 µM (-140 mV): 70.2%
remaining activity at 100 µM (0 mV): 19.2%
remaining activity at 100 µM (20 mV): 15.9%
remaining activity at 100 µM (40 mV): 14.2%
remaining activity at 100 µM (60 mV): 13.7%
remaining activity at 100 µM (80 mV): 12.7%
remaining activity at 100 µM (100 mV): 11.3%
remaining activity at 100 µM (120 mV): 11.7%
remaining activity at 100 µM (140 mV): 12.2%
remaining activity at 100 µM (-20 mV): 22.6%
remaining activity at 100 µM (-40 mV): 25.4%
remaining activity at 100 µM (-60 mV): 29.3%
remaining activity at 100 µM (-80 mV): 32.8%
remaining activity at 100 µM (-100 mV): 38%
remaining activity at 100 µM (-120 mV): 42.9%
remaining activity at 100 µM (-140 mV): 48.1%
IC50 (20 mV, 2 µM Ca2+): 19.4 µM
IC50 (40 mV, 2 µM Ca2+): 17.3 µM
IC50 (60 mV, 2 µM Ca2+): 14.6 µM
log-fold IC50 (change of mutant vs WT) (80 mV): 0.6902
IC50 (80 mV, 2 µM Ca2+): 13.3 µM
IC50 (100 mV, 2 µM Ca2+): 12.5 µM
IC50 (120 mV, 2 µM Ca2+): 11.3 µM
IC50 (140 mV, 2 µM Ca2+): 11.5 µM
IC50 (-20 mV, 2 µM Ca2+): 26.9 µM
IC50 (-40 mV, 2 µM Ca2+): 32.7 µM
IC50 (-60 mV, 2 µM Ca2+): 40.6 µM
IC50 (-80 mV, 2 µM Ca2+): 47.4 µM
IC50 (-100 mV, 2 µM Ca2+): 58 µM
IC50 (-120 mV, 2 µM Ca2+): 69.6 µM
IC50 (-140 mV, 2 µM Ca2+): 81 µM
IC50 (Y514A, V 0 mV): 22.8 µM
IC50 (Y514A, V 20 mV): 19.4 µM
IC50 (Y514A, V 40 mV): 17.3 µM
IC50 (Y514A, V 60 mV): 14.6 µM
IC50 (Y514A, V 80 mV): 13.3 µM
IC50 (Y514A, V 100 mV): 12.5 µM
IC50 (Y514A, V 120 mV): 11.3 µM
IC50 (Y514A, V 140 mV): 11.5 µM
IC50 (Y514A, V -20 mV): 26.9 µM
IC50 (Y514A, V -40 mV): 32.7 µM
IC50 (Y514A, V -60 mV): 40.6 µM
IC50 (Y514A, V -80 mV): 47.4 µM
IC50 (Y514A, V -100 mV): 58 µM
IC50 (Y514A, V -120 mV): 69.6 µM
IC50 (Y514A, V -140 mV): 81 µM
Compound: N#Cc1c(C(F)(F)F)cc(O)n2c1nc1ccccc12 [1PBC]
